Data set [1] relates to γ-crystallin. The experiment in a line: DLS, aggregation of γ-crystallin (stated for γD and γS together). Type of data set: biochemical. Particulars: for effect on the large γ-crystallin aggregate: α-crystallin mixed with γD- or γS-crystallin, molar ratio 3:1, one hour at 4° C.; for aggregation of γ-crystallin modified with the agent (DLS): dilute solution, 22° and 37° C. On the procedure: (§1) Scattering intensity was measured at angles between 30° and 90° at 5° intervals, corresponding to a scattering wave vector (q) range between 8.41×10^6 and 2.30×10^7 m^−1. The scattering wave vector is defined as q=4πn sin (θ/2)/λ, where θ is the scattering angle, and λ=514.5, the wavelength of the argon laser in vacuum, and n is 1.33, the refractive index of water. The temperature of the sample was held at constant temperature of 4 to 37±0.1° C. by a circulating water bath.
(§2) The correlation function was analyzed using CONTIN analysis to calculate lag times for the correlation functions at measured angles. The peaks represent the diffusive mode of the proteins. The delay times (τ) were converted to Γ and graphed versus q^2. The slope of the fitted line is the diffusion coefficient (D). The lines are fitted such that the intercept is zero because a non-zero value of q=0 is unphysical. The Γ versus q^2 plots were linear with r^2 values of 0.95 or greater.
(§3) All solutions were filtered with 0.22 μm hydrophobic PVDF membranes (Fisher Scientific) into 10 mm diameter borosilicate glass tubes and sealed. Solutions were allowed to equilibrate for thirty minutes prior to measuring light scattering.
γ-crystallins were subjected to a variety of experimental conditions, including a range of pHs (5, 6, 7, 8, 9, 10, 11), concentrations of KCl (100 mM, 150 mM, 300 mM, 500 mM, 1000 mM) and temperature (4.5° C., 22° C., 37° C.). The pH and salt concentration were adjusted via overnight dialysis at 4° C. and their final concentration adjusted to 1.0 g/L.
It had been hypothesized that disulfide bonds might mediate the observed γ-crystallin aggregates. The DLS of the γ-crystallin proteins was also measured in 5 mM DTT, and in the presence of 1.0 g/L α-crystallin. […] Thus, this hypothesis was incorrect.
Further, the synthesized α-crystallin proteins were mixed with γ-crystallin proteins to determine if the chaperoning ability of α-crystallin disrupts the γ-crystallin aggregates. The α-A and α-B crystallins were each individually mixed with γD- or γS-crystallin in a molar ratio of 3:1, respectively, mimicking the ratio found in the human eye lens. All solutions were allowed to equilibrate for an hour at 4° C.

For the next data set, the target named is T1, γS-crystallin (Homo sapiens, UniProt P22914).
T1 construct: 6xHis (N); made in house; host or cells: M15pRep E. coli (pQe1 plasmid from King Labs, MIT)
T1 sequence (P22914 1-178): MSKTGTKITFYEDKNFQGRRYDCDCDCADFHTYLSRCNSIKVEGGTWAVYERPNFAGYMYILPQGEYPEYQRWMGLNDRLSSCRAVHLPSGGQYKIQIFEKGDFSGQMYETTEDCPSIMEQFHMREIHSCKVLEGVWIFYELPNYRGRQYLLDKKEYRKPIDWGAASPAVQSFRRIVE
The experiment in a line: Dynamic light scattering (DLS) of γS-crystallin, hydrodynamic radius of monomer and aggregate. The class given is biochemical. As to conditions: for Rhf / Rhs: γS; for Rhf: fast mode; for Rh: γS modified with the agent. On the procedure:
(§4) The scattering wave vector is defined as q=4πn sin (θ/2)/λ, where θ is the scattering angle, and λ=514.5, the wavelength of the argon laser in vacuum, and n is 1.33, the refractive index of water. The temperature of the sample was held at constant temperature of 4 to 37±0.1° C. by a circulating water bath. The correlation function was analyzed using CONTIN analysis [NT] times for the correlation functions at measured angles. […] The delay times (τ) were converted to Γ and graphed versus q^2. The slope of the fitted line is the diffusion coefficient (D). […] All solutions were filtered with 0.22 μm hydrophobic PVDF membranes (Fisher Scientific) into 10 mm diameter borosilicate glass tubes and sealed. Solutions were allowed to equilibrate for thirty minutes prior to measuring light scattering. […] The pH and salt concentration were adjusted via overnight dialysis at 4° C. and their final concentration adjusted to 1.0 g/L. […] The scattering wave vector is defined as q=4πn sin (θ/2)/λ, where θ is the scattering angle, and λ=514.5, the wavelength of the argon laser in vacuum, and n is 1.33, the refractive index of water. The temperature of the sample was held at constant temperature of 4 to 37±0.1° C. by a circulating water bath. The correlation function was analyzed using CONTIN analysis [NT] times for the correlation functions at measured angles. […] The delay times (τ) were converted to Γ and graphed versus q^2. The slope of the fitted line is the diffusion coefficient (D). […] All solutions were filtered with 0.22 μm hydrophobic PVDF membranes (Fisher Scientific) into 10 mm diameter borosilicate glass tubes and sealed. Solutions were allowed to equilibrate for thirty minutes prior to measuring light scattering.

The next data set addresses T2, γD-crystallin (Homo sapiens, UniProt P07320).
T2 construct: 6xHis (N); made in house; host or cells: M15pRep E. coli (pQe1 plasmid from King Labs, MIT)
T2 sequence (P07320 1-174): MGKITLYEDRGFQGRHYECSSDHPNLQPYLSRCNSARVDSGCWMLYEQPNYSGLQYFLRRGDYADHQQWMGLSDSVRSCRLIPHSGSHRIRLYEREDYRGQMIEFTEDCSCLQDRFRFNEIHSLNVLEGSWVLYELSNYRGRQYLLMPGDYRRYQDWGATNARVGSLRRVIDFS
The experiment in a line: Dynamic light scattering (DLS) of γD-crystallin, hydrodynamic radius of monomer and aggregate. The class given is biochemical. As to conditions: for Rhf / Rhs: γD; for Rhf: fast mode; for Rh: γD modified with the agent. On the procedure: as §4

The nature of data set [2]: DLS of individual α-crystallin solutions (size in dilute solution). Type of data set: physicochemical. As to conditions: individual protein solution. On the procedure: as §1, §2, §3
Individual solutions of α-A, α-B, γD- and γ-S crystallin proteins were investigated to understand the size scale and how the proteins behave in dilute solution. (Table 1) Temperature had little effect on protein size in solution as measured by DLS.

The subject of data set [3] is γ-crystallin. The experiment in a line: Circular dichroism of modified γ-crystallin (secondary structure). Particulars: 0.5 mg/mL, 22° C., versus native protein. Type of data set: biochemical. On the procedure: Crystallin samples were dialyzed overnight into 10 mM Na2HPO4/NaH2PO4 buffer pH 6.8 and measured at a concentration of 0.5 mg/mL. CD spectra were measured on a Jasco J715 spectropolarimeter at 22° C. using a quartz cell of 1 mm path length.
In general terms: Circular dichroism is widely used to follow secondary structure.

The mark [4] stands for this setting: slow mode (aggregate), 100 mM NaCl.
[5] abbreviates: slow mode (aggregate), 150 mM NaCl.
Where [6] appears, read: slow mode (aggregate), 300 mM NaCl.
The mark [7] stands for this setting: α-crystallin additive, molar ratio 3:1, one hour at 4° C.
The mark [8] stands for this setting: slow mode, α-crystallin additive, molar ratio 3:1, one hour at 4° C.
Setting [9] is: fast mode (monomer, first Rh column), 22° C.

Take `[Cl-].[K+]` [KCl]: the aggregate formation entry in the data set on γ-crystallin [1] (KCl concentrations 400 to 1000 mM) was “aggregate formation was effectively inhibited”. In the data set with γ-crystallin [1] (KCl concentrations of less than 300 nM (so in the source)), the “reduction in the size of γ-crystallin aggregates” value was “did not provide a reduction in the size of γ-crystallin aggregates”. Further, the “reduction of γ-crystallin aggregates” value in the data set with γ-crystallin [1] (salt concentrations over 300 mm KCl (so in the source)) is recorded as “did reduce γ-crystallin aggregates to individual protein particles”.
As for `[Cl-].[Na+]` [NaCl], the Rhf turned out to be 2.7 nm at γS-crystallin (100 mM NaCl); 2.7 nm on γS-crystallin (150 mM NaCl); 2.9 nm on γS-crystallin (300 mM NaCl); 2.6 nm on γS-crystallin (400 mM NaCl); 2.5 nm at γS-crystallin (500 mM NaCl); 2.6 nm at γS-crystallin (1000 mM NaCl). Moreover, the Rhf on γD-crystallin (100 mM NaCl) is given as 2.8 nm; at γD-crystallin (150 mM NaCl), 2.8 nm; on γD-crystallin (300 mM NaCl) it was 2.6 nm; on γD-crystallin (400 mM NaCl) it was 2.7 nm; on γD-crystallin (500 mM NaCl), 2.8 nm; at γD-crystallin (1000 mM NaCl), 2.5 nm. Also, the Rhs at γS-crystallin (setting [4]) is reported as 104 nm; at γS-crystallin (setting [5]), 102 nm; on γS-crystallin (setting [6]), 100 nm; on γD-crystallin (setting [4]), 108 nm; on γD-crystallin (setting [5]), 104 nm; at γD-crystallin (setting [6]), 91 nm.
For the compound “αB: αB-crystallin, heat shock protein and molecular chaperone, 20.16 kDa”, the values for the Rh in data set [2] (4°), in data set [2] (22°) and in data set [2] (37°) were 12 nm, 13 nm and 13 nm, respectively. Also, the “effect on the large γ-crystallin aggregate” value with γ-crystallin [1] is “the large γ-crystallin aggregate of several hundred nanometers disappeared”. Also, the results for the Rhf with γS-crystallin (setting [7]) and with γD-crystallin (setting [7]) were 3 nm and 3.2 nm, respectively. In addition, the Rhs with γS-crystallin (setting [8]) was 19 nm; in the data set with γD-crystallin (setting [8]), 17 nm.
Turning to Biotin, the “secondary structure of modified γ-crystallin (CD spectra)” value (shortened to “secondary structure”) in the data set with γ-crystallin [3] was “showed a sizeable shift upwards as compared with the native structure of the protein”. In addition, the “aggregation of γ-crystallin modified with the agent (DLS)” value (“aggregation of γ-crystallin modified” for short) in the data set with γ-crystallin [1] is “resulted in aggregation”. In addition, the Rh on γS-crystallin (fast mode (monomer), 37° C.) was determined as 2.8 nm; on γS-crystallin (setting [9]), 2.6 nm; at γS-crystallin (slow mode (aggregate), 22° C.), 180 nm; on γS-crystallin (slow mode (aggregate), 37° C.), 210 nm; on γD-crystallin (fast mode (monomer), 37° C.), 2.7 nm; at γD-crystallin (setting [9]), 2.8 nm. Besides, the Rh on γD-crystallin (slow mode (aggregate), 22° C.) was determined as 150 nm; on γD-crystallin (slow mode (aggregate), 37° C.) it was 170 nm.
Take `O[C@@H](CS)[C@@H](O)CS` [DTT, reference compound]: the “effect on the size of the γ-crystallin aggregates” value with γ-crystallin [1] (5 mM DTT) was “had no effect on the size of the γ-crystallin aggregates”. Moreover, the Rhf on γS-crystallin (additive 5 mM DTT) is listed as 3 nm; on γD-crystallin (additive 5 mM DTT), 2.6 nm. The Rhs is reported as 102 nm at γS-crystallin (slow mode, additive 5 mM DTT) and 108 nm at γD-crystallin (slow mode, additive 5 mM DTT).
`CC(=O)O.O=C1CC(S(=O)(=O)O)C(=O)N1O` (stereo not shown) [SA, sulfo-N-hydroxysuccinimide acetate]: the “secondary structure” value in the data set with γ-crystallin [3] is recorded as “smaller well around 220 nm as compared to the native”. Moreover, in the data set with γ-crystallin [1], the “aggregation of γ-crystallin modified” value was “did not prevent aggregation”. Further, the Rh at γS-crystallin (fast mode (monomer), 37° C.) is given as 2.5 nm; on γS-crystallin (setting [9]), 2.5 nm; on γS-crystallin (slow mode (aggregate), 22° C.) it was 92.5 nm; on γS-crystallin (slow mode (aggregate), 37° C.) it was 90 nm; at γD-crystallin (fast mode (monomer), 37° C.), 2.6 nm; on γD-crystallin (setting [9]) it was 2.5 nm. The Rh at γD-crystallin (slow mode (aggregate), 22° C.) was 82.5 nm; at γD-crystallin (slow mode (aggregate), 37° C.), 85 nm.
Take PEG4: the “secondary structure” value in the data set on γ-crystallin [3] was “did not significantly affect the secondary structures”. For the same compound, the “aggregation of γ-crystallin modified” value in the data set with γ-crystallin [1] was “showed no aggregation”. The Rh at γS-crystallin (fast mode (monomer), 37° C.) was 2.9 nm; at γS-crystallin (setting [9]) it was 2.9 nm; on γD-crystallin (fast mode (monomer), 37° C.) it was 2.9 nm; at γD-crystallin (setting [9]), 2.8 nm.
For “αA: αA-crystallin, heat shock protein and molecular chaperone, 19.9 kDa”, the Rh in data set [2] (4°) is listed as 12 nm; in data set [2] (22°), 12 nm; in data set [2] (37°), 13 nm. For the same compound, the “effect on the large γ-crystallin aggregate” value in the data set on γ-crystallin [1] was “the large γ-crystallin aggregate of several hundred nanometers disappeared”.

The values are drawn from patent US10413529B2, “Methods of inhibiting cataracts and presbyopia” (UNIVERSITY OF MASSACHUSETTS, priority 2013, dated 2019).
